≈ marks a conversion by molar mass, not a printed value. Calls of active or inactive are those of the source. No cut-off for these calls is given here.
Legend:
[1] = Photoactivation of the compound assessed as photo conversion ratio by measuring SU release under 5 mins of blue light irradiation by HPLC analysis
Bacteria [2] = test: Inhibition of TEM-1 activity (unknown origin); conditions: concentration not given here
Bacteria [3] = test: Inhibition of TEM-1 activity (unknown origin) at 10 ug/ml using nitrocefin as substrate preincubated for 30 mins followed by 485 nm light irradiation and substrate addition by UV-Vis spectrometer assay; conditions: dose 10.0 µg/ml
Escherichia coli [4] = test: Synergistic antibacterial activity against cefoperazone sodium resistant Escherichia coli assessed as decrease in CFS MIC at 20 ug/ml incubated for 8 hrs (reference value: 285 ug/ml); assay type: functional; conditions: dose 20 µg/ml
Escherichia coli [5] = test: Antibiofilm activity against drug susceptible Escherichia coli incubated for 48 hrs in presence of CFS by crystal violet staining based microplate reader assay; assay type: functional, organism-based
Escherichia coli [6] = test: Bactericidal activity against drug resistant Escherichia coli in presence of CFS by plate count method; assay type: functional
Escherichia coli [7] = test: Bactericidal activity against drug resistant Escherichia coli after repeated drug exposure for three generation and measured on fourth generation in presence of CFS by plate count method; assay type: functional
[8] = Photoactivation of the compound assessed as encapsulated SU release under 405 nm light irradiation by HPLC analysis
HeLa = test: Cytotoxicity against human HeLa cells assessed as viable cells after 200 ug/ml incubated for 24 hrs by MTT assay; assay type: functional; conditions: read-out: Activity
Bacteria [9] = test: Inhibition of TEM-1 activity (unknown origin) at 65 ug/ml using nitrocefin as substrate preincubated for 30 mins followed by 485 nm light irradiation and substrate addition by UV-Vis spectrometer assay; conditions: dose 65.0 µg/ml
Bacteria [10] = test: Inhibition of TEM-1 activity (unknown origin) at 65 ug/ml using nitrocefin as substrate under absence of light irradiation by UV-Vis spectrometer assay; conditions: dose 65.0 µg/ml
Bacteria [11] = test: Inhibition of TEM-1 activity (unknown origin) at 65 ug/ml using nitrocefin as substrate preincubated for 30 mins followed by 485 nm light irradiation and substrate addition measured after 2 mins by UV-Vis spectrometer assay; conditions: dose 65.0 µg/ml, time 32.0 min
Bacteria [12] = test: Inhibition of TEM-1 activity (unknown origin) at 65 ug/ml using nitrocefin as substrate preincubated for 30 mins followed by 485 nm light irradiation and substrate addition measured after 5 mins by UV-Vis spectrometer assay; conditions: dose 65.0 µg/ml, time 35.0 min
Escherichia coli [13] = test: Synergistic antibacterial activity against cefoperazone sodium resistant Escherichia coli assessed as decrease in CFS MIC at 132 ug/ml preincubated for 20 mins prior to 405 nm LED laser irradiation for 5 mins and cocultured for 6 hrs under static condition and measured after 24 hrs by plate count method (reference value: 285 ug/ml); assay type: functional; conditions: light or radiation study, 30.42 h, dose 132 µg/ml, time 1825 min
Escherichia coli [14] = test: Synergistic antibacterial activity against cefoperazone sodium resistant Escherichia coli assessed as elimination of resistant bacteria incubated for 8 hrs in presence of CFS; assay type: functional
Escherichia coli [15] = test: (§1) Synergistic antibacterial activity against cefoperazone sodium resistant Escherichia coli assessed as elimination of resistant bacteria in presence of CFS preincubated for 20 mins prior to 405 nm LED laser irradiation for 5 mins and cocultured for 6 hrs under static condition and measured after 24 hrs by plate count method; assay type: functional; conditions: time 1825 min; 30.42 h
Escherichia coli [16] = test: as §1, with “CFS” for “cefoperazone sodium”, “increase in bacterial killing” for “elimination of resistant bacteria”; assay type: functional, organism-based; conditions: time 1825.0 min
Escherichia coli [17] = test: Synergistic antibacterial activity against CFS susceptible Escherichia coli assessed as increase in bacterial killing incubated under dark condition in presence of CFS; assay type: functional, organism-based
Escherichia coli [18] = test: Synergistic bactericidal activity against CFS susceptible Escherichia coli incubated under dark condition in presence of CFS by AO/EB staining based confocal laser scanning microscopy assay; assay type: functional, organism-based
Escherichia coli [19] = test: Synergistic bactericidal activity against CFS resistant Escherichia coli incubated under dark condition in presence of CFS by AO/EB staining based confocal laser scanning microscopy assay; assay type: functional, organism-based
Escherichia coli [20] = test: Synergistic bactericidal activity against CFS susceptible Escherichia coli incubated under light irradiation in presence of CFS by AO/EB staining based confocal laser scanning microscopy assay; assay type: functional, organism-based
Escherichia coli [21] = test: Synergistic bactericidal activity against CFS resistant Escherichia coli incubated under light irradiation in presence of CFS by AO/EB staining based confocal laser scanning microscopy assay; assay type: functional, organism-based
Escherichia coli [22] = test: Synergistic antibacterial activity against Escherichia coli incubated under dark condition in presence of AMP; assay type: functional, organism-based
Escherichia coli [23] = test: Synergistic antibacterial activity against Escherichia coli incubated under light irradiation in presence of AMP; assay type: functional, organism-based
Escherichia coli [24] = test: Synergistic antibacterial activity against Escherichia coli assessed as appearance of shrunken cell wall under light irradiation in presence of CFS; assay type: functional, organism-based
Escherichia coli [25] = test: Synergistic antibacterial activity against Escherichia coli assessed as appearance of incomplete cell wall under light irradiation in presence of CFS; assay type: functional, organism-based
Escherichia coli [26] = test: Antibiofilm activity against Escherichia coli assessed as reduction in bacterial cell density after 48 hrs under light irradiation in presence of CFS by FITC-ConA staining based confocal laser scanning microscopy analysis; assay type: functional, organism-based
Escherichia coli [27] = test: Antibiofilm activity against Escherichia coli assessed as reduction in exo-polysaccharide content after 48 hrs under light irradiation in presence of CFS by FITC-ConA staining based confocal laser scanning microscopy analysis; assay type: functional, organism-based
Escherichia coli [28] = test: Antibiofilm activity against drug resistant Escherichia coli incubated for 48 hrs in presence of CFS by crystal violet staining based microplate reader assay; assay type: functional
Escherichia coli [29] = test: Antibiofilm activity against drug resistant Escherichia coli incubated for 48 hrs under light irradiation in presence of CFS by crystal violet staining based microplate reader assay; assay type: functional
Escherichia coli [30] = test: Bactericidal activity against drug resistant Escherichia coli after repeated drug exposure for multiple generation under light irradiation in presence of CFS by plate count method; assay type: functional, organism-based
Escherichia coli [31] = test: Downregulation of beta-lactamase expression in Escherichia coli measured after eighth generation in presence of CFS under light irradiation condition by ELISA; assay type: functional
[32] = Solubility of compound in water; assay type: physicochemical
[33] = Stability of compound under ambient light condition measured after 72 hrs; assay type: physicochemical
[34] = Drug uptake in Escherichia coli assessed as increase in red fluorescence at 1 mg/ml incubated for 15 mins under dark condition by acridine orange staining based confocal laser scanning microscopy analysis; assay type: ADME; conditions: 0.25 h
[35] = Drug uptake in Escherichia coli assessed as increase in red fluorescence at 1 mg/ml after 1 mins under 405 nm light irradiation by acridine orange staining based confocal laser scanning microscopy analysis; assay type: ADME
Escherichia coli [36] = test: Antibacterial activity against cefoperazone sodium susceptible Escherichia coli incubated for 8 hrs; assay type: functional
Escherichia coli [37] = test: Antibacterial activity against cefoperazone sodium resistant Escherichia coli incubated for 8 hrs; assay type: functional
Escherichia coli [38] = test: Antibacterial activity against cefoperazone sodium resistant Escherichia coli assessed as elimination of resistant bacteria incubated for 8 hrs; assay type: functional
Escherichia coli [39] = test: Bactericidal activity against CFS susceptible Escherichia coli incubated under dark condition by AO/EB staining based confocal laser scanning microscopy assay; assay type: functional, organism-based
Escherichia coli [40] = test: Bactericidal activity against CFS susceptible Escherichia coli incubated under light irradiation by AO/EB staining based confocal laser scanning microscopy assay; assay type: functional, organism-based
Escherichia coli [41] = test: Bactericidal activity against CFS resistant Escherichia coli incubated under dark condition by AO/EB staining based confocal laser scanning microscopy assay; assay type: functional, organism-based
Escherichia coli [42] = test: Antibacterial activity against CFS resistant Escherichia coli assessed as change in bacterial cell wall by SEM analysis; assay type: functional, organism-based
Escherichia coli [43] = test: Antibiofilm activity against drug susceptible Escherichia coli incubated for 48 hrs by crystal violet staining based microplate reader assay; assay type: functional, organism-based
Escherichia coli [44] = test: Antibiofilm activity against drug resistant Escherichia coli incubated for 48 hrs by crystal violet staining based microplate reader assay; assay type: functional
Escherichia coli [45] = test: Antibacterial activity against drug susceptible Escherichia coli; assay type: functional
Escherichia coli [46] = test: Antibacterial activity against drug resistant Escherichia coli; assay type: functional

CC1(C)C(C(=O)OCCc2ccccc2[N+](=O)[O-])N2C(=O)CC2S1(=O)=O (stereo not given)
Activity [1]: 25% | inhibition (Bacteria [2]): 9.03%

CC1(C)[C@H](C(=O)O)N2C(=O)C[C@H]2S1(=O)=O [SULBACTAM]
inhibition (Bacteria [3]): 93.3% | MIC (Escherichia coli [4]): 14 µg/mL | Activity (Escherichia coli [5]): Active | Activity (Escherichia coli [6]): 98% | Activity (Escherichia coli [7]): 45%

CC(COC(=O)C1N2C(=O)CC2S(=O)(=O)C1(C)C)c1cc(-c2ccc(OCCOCCOCCOCCn3nncc3CCCO[C@H]3O[C@H](CO)[C@H](O)[C@H](O)[C@H]3O)cc2)ccc1[N+](=O)[O-] (stereo not given in full)
Activity [1]: 62% | Activity [8]: ~ 60% | viability at 200 µg/mL (HeLa): > 90% | inhibition (Bacteria [9]): Active | inhibition (Bacteria [10]): 7.26% | inhibition (Bacteria [11]): 84.7% | inhibition (Bacteria [12]): 89.1% | MIC (Escherichia coli [13]): 14 µg/mL | Activity (Escherichia coli [14]): 54.7% | Activity (Escherichia coli [15]): 96.01% | Activity (Escherichia coli [16]): Active | Activity (Escherichia coli [17]): Active | Activity (Escherichia coli [18]): inactive | Activity (Escherichia coli [19]): inactive | Activity (Escherichia coli [20]): Active | Activity (Escherichia coli [21]): Active | Activity (Escherichia coli [22]): Active | Activity (Escherichia coli [23]): Active | Activity (Escherichia coli [24]): Active | Activity (Escherichia coli [25]): Active | Activity (Escherichia coli [26]): Active | Activity (Escherichia coli [27]): Active | Activity (Escherichia coli [5]): Active | Activity (Escherichia coli [28]): ~50% | Activity (Escherichia coli [29]): ~90% | Activity (Escherichia coli [30]): Active | Activity (Escherichia coli [31]): Active | solubility [32]: ≤ 1000 µM | Stability [33]: Stable

CC1(C)C(C(=O)OCCCOC(=O)Cc2ccccc2[N+](=O)[O-])N2C(=O)CC2S1(=O)=O (stereo not given)
inhibition (Bacteria [2]): 10.6%

CCN(CC)c1ccc2c(-c3ccccc3COCC(C)c3cc(-c4ccc(OCCOCCOCCOCCn5nncc5CCCO[C@H]5O[C@H](CO)[C@H](O)[C@H](O)[C@H]5O)cc4)ccc3[N+](=O)[O-])c3ccc(=[N+](CC)CC)cc-3oc2c1.Cl (stereo not given in full)
Drug uptake [34]: Active | Drug uptake [35]: Active

CCN1CCN(C(=O)N[C@@H](C(=O)N[C@@H]2C(=O)N3C(C(=O)[O-])=C(CSc4nnnn4C)CS[C@H]23)c2ccc(O)cc2)C(=O)C1=O.[Na+] [CEFOPERAZONE SODIUM]
MIC (Escherichia coli [36]): 14 µg/mL | MIC (Escherichia coli [37]): 285 µg/mL | Activity (Escherichia coli [38]): 54.2% | Activity (Escherichia coli [39]): Active | Activity (Escherichia coli [40]): Active | Activity (Escherichia coli [41]): inactive | Activity (Escherichia coli [42]): inactive | Activity (Escherichia coli [43]): Active | Activity (Escherichia coli [44]): ~50%

CC1(C)S[C@@H]2[C@H](NC(=O)[C@H](N)c3ccccc3)C(=O)N2[C@H]1C(=O)O [AMPICILLIN]
MIC (Escherichia coli [45]): 8 µg/mL (≈ 22.9 µM) | MIC (Escherichia coli [46]): 150 µg/mL (≈ 429 µM)
